# Laboratory results published in patent publication US10280183B2, “Therapeutic agent for treating tumors” (THE RESEARCH FOUNDATION FOR THE STATE UNIVERSITY OF NEW YORK, priority 2014, dated 2019).
# Read-outs that look alike come from different tables or passages of the source.
# Assays:
# [1] = test system: MX-1 human breast carcinoma cell line (BR+); assay: In vitro cytotoxicity, standard MTT assay, MX-1 cells; assay type: cell-based; settings: Homo sapiens, Breast carcinoma cell
# Procedure: (§1) Cell Culture. All cell lines were obtained from ATCC unless otherwise noted. Cells were cultured in RPMI-1640 cell culture medium (Gibco) or DMEM (Gibco), both supplemented with 5% (v/v) heat-inactivated fetal bovine serum (FBS), 5% (v/v) NuSerum, and 1% (v/v) penicillin and streptomycin (PenStrep) at 37° C. in a humidified atmosphere with 5% CO2. MX-1 and ID8 (obtained from University of Kansas Medical Center) cells were cultured as monolayers on 100 mm tissue culture dishes in supplemented RPMI-1640. L1210 and L1210FR (a gift from Dr. Gregory Russell-Jones, Access Pharmaceuticals Pty Ltd., Australia) were grown as a suspension in supplemented RPMI-1640, and WI-38 as a monolayer in supplemented DMEM. Cells were harvested, collected by centrifugation at 850 rpm for 5 min, and resuspended in fresh culture medium. Cell cultures were routinely divided by treatment with trypsin (TrypLE, Gibco) as needed every 2-4 days and collected by centrifugation at 850 rpm for 5 min, and resuspended in fresh cell culture medium, containing varying cell densities for subsequent biological experiments and analysis.
# (§2) In Vitro Cytotoxicity Assays. […] Cells were harvested, collected, and resuspended in 100 μL cell culture medium at concentrations ranging from 0.5-1.5×10^4 cells per well in a 96-well plate. For adhesive cell types, cells were allowed to descend to the bottom of the wells overnight, and fresh medium was added to each well upon removal of the old medium.
# (§3) For the MTT assay (Table 1 and the Assay 1 in Table 2) of paclitaxel, taxoid 3 and conjugates 1 and 15, cells were resuspended in 200 μL medium with 8,000 to 10,000 cells per well of a 96-well plate and incubated at 37° C. for 24 h before drug treatment. In DMSO stock solutions, each drug or conjugate was diluted to a series of concentrations in cell culture medium to prepare test solutions. After removing the old medium, these test solutions were added to the wells in the 96-well plate to give the final concentrations ranging from 0.5 to 5,000 nM (100 μL), and the cells were subsequently cultured at 37° C. for 48 h (Table 1) or 72 h (Table 2, Assay 1). For the leukemia cell lines, L1210 and L1210FR, cells were harvested, collected, and resuspended in the test solutions ranging from 0.5 to 5,000 nM (100 μL) at 0.5 to 0.8 ×10^4 cells per well in a 96-well plate and subsequently incubated at 37° C. for 48 h (Table 1) or 72 h (Table 2, Assay 1).
# (§4) In the Assay 2 (Table 2), cells were incubated with 1 or 15 at 37° C. for 24 h, and the drug medium was removed. Then, treated cells were thoroughly washed with PBS, and GSH-OEt (6 equiv. to conjugate) in cell culture medium (200 μL) was added to the wells. These cells were incubated at 37° C. for an additional 48 h, i.e., the total incubation time was 72 h.
# (§5) In the Assay 3 (Table 2), cells were incubated with 1 or 15 at 37° C. for 24 h, and GSH-OEt (6 equivalents) in cell culture medium (100 μL) was directly added to the wells. These cells were incubated at 37° C. for an additional 48 h, i.e. the total incubation time was also 72 h.
# (§6) For all experiments, after removing the test medium, fresh solution of MTT in PBS (40 μL of 0.5 mg MTT/mL) was added to the wells, and the cells were incubated at 37° C. for 3 h. The MTT solution was then removed, and the resulting insoluble violet formazan crystals were dissolved in 0.1 N HCl in isopropanol with 10% Triton X-100 (40 μL) to give a violet solution. The spectrophotometric absorbance measurement of each well in the 96-well plate was run at 570 nm using a Labsystems Multiskan Ascent microplate reader. The IC50 values and their standard errors were calculated from the viability-concentration curve using Four Parameter Logistic Model of Sigmaplot. The concentration of DMSO per well was ≤1% in all cases. Each experiment was run in triplicate.
# [2] = test system: ID8 murine ovarian carcinoma cell line (BR+); assay: In vitro cytotoxicity, standard MTT assay, ID8 cells; assay type: cell-based; settings: Mus musculus, Ovarian carcinoma cell, read-out: Cytotoxicity IC50, ID8
# Procedure: as §1, §2
# as §3, with “After removing the old medium, these test solutions were added to the wells in the 96-well plate to give the final concentrations ranging from 0.5 to 5,000 nM (100 μL), and the cells were subsequently cultured at 37° C. for 48 h (Table 1) or 72 h (Table 2, Assay 1).” left out
# as §6
# [3] = test system: L1210FR murine lymphocytic leukemia cell line (BR+); assay: In vitro cytotoxicity, standard MTT assay, L1210FR cells; assay type: cell-based; settings: Mus musculus
# Procedure: as §1, §2, §3, §4, §5, §6
# [4] = test system: L1210 murine lymphocytic leukemia cell line (BR−); assay: In vitro cytotoxicity, standard MTT assay, L1210 cells; assay type: cell-based; settings: Mus musculus, read-out: Cytotoxicity IC50, L1210
# Procedure: as §1, §2, §3, §6
# [5] = In vitro cytotoxicity, standard MTT assay, WI38 cells; assay type: cell-based, human; settings: human; for IC50 at 48 h: incubation at 37° C. for 48 h
# Procedure: as §1, §2, §3, §4, §5, §6
# [6] = test system: BR+ cancer cell lines (L1210FR, MX-1, ID8); assay: MTT cytotoxicity summarised over BR+ cancer cell lines; assay type: cell-based
# Procedure: as §2, §3, §4, §5, §6
# Thus, the Assay 1 results provide the potency of conjugates in the same manner as that for the first assay summarized in Table 1, but for longer incubation time (48 h vs. 72 h). […] Accordingly, this assay may mimic the corresponding in vivo assay conditions, wherein non-internalized conjugates would be removed from the tumor, redistributed and eventually excreted. […] Thus, in principle, the results (IC50 values) in this assay should be very close to those for the control using taxoid 3 (entry 2).
# [7] = test system: WI38 human lung fibroblast cell line (BR−); assay: In vitro cytotoxicity, standard MTT assay, WI38 cells; assay type: cell-based
# Procedure: as §1, §2, §3, §4, §5, §6
# [8] = 48 h, read-out: Cytotoxicity IC50, MX-1
# [9] = 72 h, read-out: Cytotoxicity IC50, MX-1, Assay 1
# [10] = 48 h, read-out: Cytotoxicity IC50, L1210FR
# [11] = 72 h, read-out: Cytotoxicity IC50, L1210FR, Assay 1
# [12] = 72 h incubation, no GSH-OEt, read-out: Cytotoxicity IC50, WI38, Assay 1
compound,measurement,setting,value
"CC(=O)O[C@@]12CO[C@@H]1C[C@H](O)[C@@]1(C)C(=O)[C@H](OC(=O)C3CC3)C3=C(C)[C@@H](OC(=O)[C@H](OC(=O)Cc4ccccc4SSC(C)CCC(=O)NNC(=O)CCCC[C@@H]4SC[C@@H]5NC(=O)N[C@@H]54)[C@H](C=C(C)C)NC(=O)OC(C)(C)C)C[C@@](O)([C@@H](OC(=O)c4ccccc4)[C@H]21)C3(C)C (stereo partly shown) [Conjugate 15, Biotin-(SS-Linker)-SB-T-1214]",IC50,[1]; [8],15.4 ± 4.2 nM
same,IC50,[1]; [9],4.66 ± 0.87 nM
same,IC50,"[1]; read-out: Cytotoxicity IC50, MX-1, Assay 2",3.85 ± 0.14 nM
same,IC50,"[1]; read-out: Cytotoxicity IC50, MX-1, Assay 3",2.4 ± 0.18 nM
same,IC50,[2]; 48 h,4.32 ± 1.58 nM
same,IC50,[3]; [10],13.4 ± 6.8 nM
same,IC50,[3]; [11],12.3 ± 2.8 nM
same,IC50,"[3]; read-out: Cytotoxicity IC50, L1210FR, Assay 2",5.15 ± 2.85 nM
same,IC50,"[3]; read-out: Cytotoxicity IC50, L1210FR, Assay 3",2.92 ± 2.34 nM
same,IC50,"[4]; L1210, 48 h",481 ± 34 nM
same,IC50 at 72 h,"[5]; 24 h incubation, PBS wash, then GSH-OEt (6 equiv.) and additional 48 h, read-out: Cytotoxicity IC50, WI38, Assay 2",590 ± 164 nM
same,IC50 at 72 h,"[5]; 24 h incubation, then GSH-OEt (6 equiv.) added without washing, additional 48 h, read-out: Cytotoxicity IC50, WI38, Assay 3",11 ± 3.1 nM
same,IC50 at 72 h,[5]; [12],645 ± 97 nM
same,IC50 at 48 h,[5],670 ± 89 nM
same,IC50,"[6]; 24 h, PBS wash, GSH-OEt, additional 48 h, range over conjugates 1 and 15, read-out: IC50 range against BR+ cancer cells (MX-1, L1210FR), Assay 2",3.85 to 6.6 nM
same,"Cancer cell selectivity (BR-specificity), BR+ cancer cells vs BR− WI38 cells",[6]; Assay 2,two-orders of magnitude difference
same,IC50,"[6]; GSH-OEt added after 24 h without PBS washing, additional 48 h, range over conjugates 1 and 15, read-out: IC50 range against MX-1 and L1210FR, third assay (Assay 3)",2.4 to 2.92 nM
"CC(=O)O[C@@]12CO[C@@H]1C[C@H](O)[C@@]1(C)C(=O)[C@H](OC(=O)C3CC3)C3=C(C)[C@@H](OC(=O)[C@H](O)[C@H](C=C(C)C)NC(=O)OC(C)(C)C)C[C@@](O)([C@@H](OC(=O)c4ccccc4)[C@H]21)C3(C)C [Taxoid 3, SB-T-1214, reference compound]",IC50,[1]; [8],4.13 ± 2.59 nM
same,IC50,[1]; [9],2.66 ± 0.16 nM
same,IC50,[2]; 48 h,0.17 ± 0.14 nM
same,IC50,[3]; [10],4.18 ± 1.8 nM
same,IC50,[3]; [11],2.32 ± 1.41 nM
same,IC50,"[4]; L1210, 48 h",7.05 ± 1.38 nM
same,IC50 at 72 h,[5]; [12],4.89 ± 2.24 nM
same,IC50 at 48 h,[5],5.23 ± 0.27 nM
same,IC50,"[6]; 72 h incubation, read-out: IC50 range of free taxoid against MX-1 and L1210FR",2.32 to 2.66 nM
"CC(=O)O[C@H]1C(=O)[C@@]2(C)[C@H]([C@H](OC(=O)c3ccccc3)[C@]3(O)C[C@H](OC(=O)[C@H](O)[C@@H](NC(=O)c4ccccc4)c4ccccc4)C(C)=C1C3(C)C)[C@]1(OC(C)=O)CO[C@@H]1C[C@@H]2O [paclitaxel, reference compound]",IC50,"[1]; 72 h incubation, no GSH-OEt, read-out: Cytotoxicity IC50, MX-1, Assay 1",4.07 ± 0.8 nM
same,IC50,"[1]; incubation at 37° C. for 48 h, read-out: Cytotoxicity IC50, MX-1",7.23 ± 0.68 nM
same,IC50,[2]; incubation at 37° C. for 48 h,14.4 ± 1.81 nM
same,IC50,"[3]; 72 h incubation, no GSH-OEt, read-out: Cytotoxicity IC50, L1210FR, Assay 1",35.6 ± 8.2 nM
same,IC50,"[3]; incubation at 37° C. for 48 h, read-out: Cytotoxicity IC50, L1210FR",38.7 ± 17.7 nM
same,IC50,"[4]; L1210, incubation at 37° C. for 48 h",77.1 ± 12.8 nM
same,IC50,[7]; [12],55.7 ± 9.54 nM
same,IC50,"[7]; incubation at 37° C. for 48 h, read-out: Cytotoxicity IC50, WI38",61.4 ± 12.7 nM
